Active and inactive are the calls of the source. No cut-off for these calls is given here.

In data set [1] the test system is J774.A1. Kind of data set: Anti-inflammatory activity against mouse J774.A1 cells assessed as inhibition of LPS-induced IL-6 production at 10 uM preincubated for 30 mins followed by LPS stimulation for 24 hrs by ELISA relative to control. The data set is classed as functional. As to conditions: time 24.5 hrs. (An ELISA detects its analyte on a solid surface through an enzyme-linked reagent.)

Data set [2] concerns Mus musculus. Kind of data set: Anti-inflammatory activity in C57BL/6 mouse assessed as decrease in LPS-induced wet to dry ratio in lung tissue at 20 mg/kg pretreated for 30 mins followed by LPS stimulation for 6 hrs. As to conditions: time 6.5 hrs. Type of data set: functional, organism-based.
Data set [3] relates to Mus musculus. The experiment in a line: Anti-inflammatory activity in C57BL/6 mouse assessed as decrease in LPS-induced IL-6 level in BALF at 20 mg/kg pretreated for 30 mins followed by LPS stimulation for 6 hrs by ELISA. The data set is classed as functional, organism-based. The note with it: time 6.5 hrs.
Data set [4] relates to Mus musculus. Kind of data set: Anti-inflammatory activity in C57BL/6 mouse assessed as decrease in LPS-induced macrophage infiltration in lung tissue at 20 mg/kg pretreated for 30 mins followed by LPS stimulation for 6 hrs by IHC analysis. The note with it: time 6.5 hrs. The data set is classed as functional, organism-based.
Data set [5] relates to Mus musculus. The experiment in a line: Anti-inflammatory activity in C57BL/6 mouse assessed as decrease in LPS-induced IL-6 level in serum at 20 mg/kg pretreated for 30 mins followed by LPS stimulation for 6 hrs by ELISA. The data set is classed as functional, organism-based. The note with it: time 6.5 hrs.
In data set [6] the test system is Mus musculus. Kind of data set: Anti-inflammatory activity in C57BL/6 mouse assessed as decrease in LPS-induced TNF-alpha level in BALF at 20 mg/kg pretreated for 30 mins followed by LPS stimulation for 6 hrs by ELISA. Type of data set: functional, organism-based. As to conditions: time 6.5 hrs.
Data set [7] deals with Mus musculus. The experiment in a line: Anti-inflammatory activity in C57BL/6 mouse assessed as decrease in LPS-induced TNF-alpha level in serum at 20 mg/kg pretreated for 30 mins followed by LPS stimulation for 6 hrs by ELISA. The data set is classed as functional, organism-based. As to conditions: time 6.5 hrs.
Data set [8] relates to Mus musculus. The experiment in a line: Anti-inflammatory activity in C57BL/6 mouse assessed as decrease in LPS-induced total protein level in BALF at 20 mg/kg pretreated for 30 mins followed by LPS stimulation for 6 hrs. Type of data set: functional, organism-based. The note with it: time 6.5 hrs.
Data set [9] concerns J774.A1. Kind of data set: Cytotoxicity against mouse J774.A1 cells assessed as cell survival at 10 uM by MTT assay. Type of data set: toxicity, cell-based. The note with it: j774.a1, 10 µM.
The subject of data set [10] is J774.A1. The experiment in a line: Anti-inflammatory activity against mouse J774.A1 cells assessed as inhibition of LPS-induced IL-6 production preincubated for 30 mins followed by LPS stimulation for 24 hrs by ELISA. Type of data set: functional, cell-based.
In data set [11] the test system is Mus musculus. The experiment in a line: Anti-inflammatory activity in C57BL/6 mouse assessed as decrease in LPS-induced thickened alveolar septa in lung tissue at 20 mg/kg pretreated for 30 mins followed by LPS stimulation for 6 hrs by H and E staining based analysis. Type of data set: functional, organism-based. As to conditions: time 6.5 hrs.
The subject of data set [12] is Mus musculus. The experiment in a line: Anti-inflammatory activity in C57BL/6 mouse assessed as decrease in LPS-induced inflammatory infiltration in lung tissue at 20 mg/kg pretreated for 30 mins followed by LPS stimulation for 6 hrs by H and E staining based analysis. As to conditions: time 6.5 hrs. The data set is classed as functional, organism-based.
For data set [13], the system named is Mus musculus. The experiment in a line: Anti-inflammatory activity in C57BL/6 mouse assessed as decrease in LPS-induced destruction in lung tissue at 20 mg/kg pretreated for 30 mins followed by LPS stimulation for 6 hrs by H and E staining based analysis. The data set is classed as functional, organism-based. As to conditions: time 6.5 hrs.
The subject of data set [14] is Mus musculus. The experiment in a line: Anti-inflammatory activity in C57BL/6 mouse assessed as decrease in LPS-induced pulmonary congestion in lung tissue at 20 mg/kg pretreated for 30 mins followed by LPS stimulation for 6 hrs by H and E staining based analysis. The data set is classed as functional, organism-based. The note with it: time 6.5 hrs.
The subject of data set [15] is Mus musculus. Kind of data set: Anti-inflammatory activity in C57BL/6 mouse assessed as decrease in LPS-induced interstitial edema in lung tissue at 20 mg/kg pretreated for 30 mins followed by LPS stimulation for 6 hrs by H and E staining based analysis. As to conditions: time 6.5 hrs. The data set is classed as functional, organism-based.

As for `O=C(/C=C/c1ccccc1)Nc1ncc(-c2ccc(C3CCCCC3)cc2)s1`, in the data set with J774.A1 [1], the inhibition (in general, how much of the control response was suppressed) at 10 µM is 51.9%.
Same read-out and setting: next, `COc1ccc(-c2csc(NC(=O)c3ccccc3C)n2)cc1OC`: 36.8%; `COc1ccc(-c2csc(NC(=O)c3ccc(F)cc3)n2)cc1OC`: 51.2%; `O=C(/C=C/c1ccccc1)Nc1ncc(-c2cccc([N+](=O)[O-])c2)s1`: 36.5%.
The same measure, in the same setting: next, `CCOc1ccc(-c2cnc(NC(=O)/C=C/c3ccccc3)s2)cc1`: 37.6%.
As for `C[C@@H]1C[C@H]2[C@@H]3CCC4=CC(=O)C=C[C@]4(C)[C@@]3(F)[C@@H](O)C[C@]2(C)[C@@]1(O)C(=O)CO`, the outcome in the data set on Mus musculus [2], with Mus musculus [3], in the data set on Mus musculus [4], in the data set with Mus musculus [5], in the data set with Mus musculus [6] and in the data set on Mus musculus [7] was Active. In addition, in the data set on Mus musculus [8], the outcome was Active.
Consider `COc1ccc(-c2cnc(NC(=O)/C=C/c3ccccc3)s2)cc1OC`, for which the inhibition at 10 µM in the data set with J774.A1 [1] was determined as 53%.
Still for that read-out and setting: next, `COc1ccc(-c2csc(NC(=O)c3ccc(F)cc3Cl)n2)cc1OC`: 23.3%.
Same read-out and setting: next, `COc1ccc(-c2csc(NC(=O)c3ccc(C)cc3)n2)cc1OC`: 38.8%.
With `COc1ccc(-c2csc(NC(=O)c3ccc(Cl)c([N+](=O)[O-])c3)n2)cc1OC`, in the data set on J774.A1 [1], the inhibition at 10 µM was found to be 64.1%. The Activity result in the data set with J774.A1 [9] was “Toxic”.
For the compound `O=C(O)/C=C/c1ccccc1` [CINNAMIC ACID], the inhibition at 10 µM in the data set on J774.A1 [1] turned out to be 26.4%.
With `O=C(/C=C/c1ccccc1)Nc1nc2ccccc2s1`, in the data set with J774.A1 [10], the IC50 (in general, the concentration that gives 50% inhibition) came to 1060 nM. Further, in the data set on J774.A1 [10] (dose 1.25-10 µM, time 24.5 hrs), the inhibition entry is “Dose-dependent-effect”. Moreover, the outcome with Mus musculus [2], in the data set with Mus musculus [3], in the data set with Mus musculus [4], with Mus musculus [11], in the data set with Mus musculus [12] and in the data set on Mus musculus [5] was Active. The outcome with Mus musculus [13], in the data set with Mus musculus [14], in the data set on Mus musculus [6], in the data set with Mus musculus [7], with Mus musculus [15] and in the data set on Mus musculus [8] was Active. In the data set on J774.A1 [1], the inhibition at 10 µM turned out to be 79.6%. The Activity entry in the data set with J774.A1 [9] is reported as “Non-toxic”.
As for `COc1cc(-c2cnc(NC(=O)/C=C/c3ccccc3)s2)cc(OC)c1OC`, in the data set on J774.A1 [1], the inhibition at 10 µM turned out to be 72.7%. Moreover, the Activity result in the data set with J774.A1 [9] is listed as “Non-toxic”.
Consider `O=C(/C=C/c1ccccc1)Nc1ncc(-c2ccc(Br)cc2)s1`, for which, in the data set with J774.A1 [1], the inhibition at 10 µM is 21.6%.
Same read-out and setting: next, `COc1ccc(-c2csc(NC(=O)c3cccc(Br)c3)n2)cc1OC`: 19.8%; `COc1ccc(-c2csc(NC(=O)c3cccc(F)c3)n2)cc1OC`: 19.5%.

The record behind these values is ChEMBL document CHEMBL6087426, “Design, synthesis and bioactivity evaluation of cinnamic acid derivatives as potential anti-inflammatory agents against LPS-induced acute lung injury” (Bioorg Med Chem Lett, 2025).
